# Reference: ChEMBL document CHEMBL1201862, “PubChem BioAssay data set” (2004)
# Activity calls are given as the source filed them.
# How the values were obtained:
# [1] = C. albicans growth with fluconazole, confirmation, fluorescence, retest (AID 2467); format: functional, cell-based
# [2] = NIH-3T3 fibroblast cytotoxicity, dose response, cytotoxicity control, cell-based, fluorescence, Alamar Blue, secondary assay (AID 2327); format: functional;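 note: NIH-3T3 mouse fibroblasts cultured with fluconazole at 8 µg/mL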
# [3] = biological target: T1, Serine/threonine-protein phosphatase (Candida dubliniensis (strain CD36 / CBS 7987 / NCPF 3949 / NRRLY-17841) (Yeast), UniProt B9W6M3); test: calcineurin pathway inhibitors in yeast reporter, dose response, S. cerevisiae, CDRE-lacZ, luminescence, secondary (AID 2388); format: functional, cell-based;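 note: yeast reporter cells carrying a calcineurin-responsive lacZ construct stimulated with calcium chloride; luminescent beta-galactosidase reporter signal in whole cells rather than isolated phosphatase activity; potency for inhibition where a drop in reporter signal means calcineurin blockade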
# T1 sequence (B9W6M3 whole entry): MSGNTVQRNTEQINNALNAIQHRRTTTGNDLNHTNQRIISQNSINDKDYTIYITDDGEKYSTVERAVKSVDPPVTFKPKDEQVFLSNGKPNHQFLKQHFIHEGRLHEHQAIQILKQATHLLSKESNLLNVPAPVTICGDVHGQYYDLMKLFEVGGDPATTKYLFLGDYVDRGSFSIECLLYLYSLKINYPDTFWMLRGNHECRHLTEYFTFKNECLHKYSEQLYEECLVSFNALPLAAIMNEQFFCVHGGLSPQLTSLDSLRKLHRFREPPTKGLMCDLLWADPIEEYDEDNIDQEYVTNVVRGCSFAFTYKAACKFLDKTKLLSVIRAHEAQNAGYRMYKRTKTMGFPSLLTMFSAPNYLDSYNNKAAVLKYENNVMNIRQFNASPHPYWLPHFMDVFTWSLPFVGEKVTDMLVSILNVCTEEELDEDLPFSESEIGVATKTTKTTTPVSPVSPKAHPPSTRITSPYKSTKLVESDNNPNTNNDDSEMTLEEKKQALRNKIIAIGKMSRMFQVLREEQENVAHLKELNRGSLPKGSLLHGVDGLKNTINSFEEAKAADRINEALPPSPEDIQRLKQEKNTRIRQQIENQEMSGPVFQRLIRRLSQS
# [4] = biological target: ATP-dependent molecular chaperone HSP82 (Candida albicans (strain WO-1) (Yeast), UniProt C4YTQ8); test: loss of DOC-induced GRE-beta-galactosidase reporter signal, dose response, Hsp90 inhibitor project, S. cerevisiae, luminescence (AID 2400); format: functional, cell-based;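 note: beta-galactosidase luminescence from glucocorticoid response element reporter as proxy for Hsp90 function; inhibitor potency where signal loss means Hsp90 inhibition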
# Chain of ATP-dependent molecular chaperone HSP82 (C4YTQ8 whole entry): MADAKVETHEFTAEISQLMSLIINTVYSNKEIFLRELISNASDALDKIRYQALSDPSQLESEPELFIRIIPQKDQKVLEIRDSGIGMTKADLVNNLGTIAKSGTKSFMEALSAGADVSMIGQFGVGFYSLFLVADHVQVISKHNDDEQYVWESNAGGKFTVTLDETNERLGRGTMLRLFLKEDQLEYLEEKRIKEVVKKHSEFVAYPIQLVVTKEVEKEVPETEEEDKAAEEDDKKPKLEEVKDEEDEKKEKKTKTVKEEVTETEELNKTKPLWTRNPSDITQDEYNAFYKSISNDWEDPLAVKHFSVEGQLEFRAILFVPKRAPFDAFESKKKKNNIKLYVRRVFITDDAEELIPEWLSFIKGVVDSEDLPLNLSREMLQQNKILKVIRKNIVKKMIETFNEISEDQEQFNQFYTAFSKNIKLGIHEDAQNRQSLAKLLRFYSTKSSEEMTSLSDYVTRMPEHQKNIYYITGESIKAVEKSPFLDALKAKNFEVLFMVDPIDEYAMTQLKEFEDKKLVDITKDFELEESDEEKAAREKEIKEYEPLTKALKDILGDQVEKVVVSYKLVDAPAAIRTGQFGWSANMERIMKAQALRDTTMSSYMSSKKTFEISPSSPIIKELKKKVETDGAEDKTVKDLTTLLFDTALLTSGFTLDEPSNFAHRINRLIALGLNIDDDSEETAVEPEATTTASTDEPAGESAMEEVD
# [5] = biological target: Potassium voltage-gated channel subfamily KQT member 2 (Rattus norvegicus, UniProt O88943); test: KCNQ2 potassium channel inhibitors, dose response, cell-based, automated electrophysiology, set II, rat KCNQ2 (AID 588637); format: functional
# Chain of Potassium voltage-gated channel subfamily KQT member 2 (O88943 whole entry): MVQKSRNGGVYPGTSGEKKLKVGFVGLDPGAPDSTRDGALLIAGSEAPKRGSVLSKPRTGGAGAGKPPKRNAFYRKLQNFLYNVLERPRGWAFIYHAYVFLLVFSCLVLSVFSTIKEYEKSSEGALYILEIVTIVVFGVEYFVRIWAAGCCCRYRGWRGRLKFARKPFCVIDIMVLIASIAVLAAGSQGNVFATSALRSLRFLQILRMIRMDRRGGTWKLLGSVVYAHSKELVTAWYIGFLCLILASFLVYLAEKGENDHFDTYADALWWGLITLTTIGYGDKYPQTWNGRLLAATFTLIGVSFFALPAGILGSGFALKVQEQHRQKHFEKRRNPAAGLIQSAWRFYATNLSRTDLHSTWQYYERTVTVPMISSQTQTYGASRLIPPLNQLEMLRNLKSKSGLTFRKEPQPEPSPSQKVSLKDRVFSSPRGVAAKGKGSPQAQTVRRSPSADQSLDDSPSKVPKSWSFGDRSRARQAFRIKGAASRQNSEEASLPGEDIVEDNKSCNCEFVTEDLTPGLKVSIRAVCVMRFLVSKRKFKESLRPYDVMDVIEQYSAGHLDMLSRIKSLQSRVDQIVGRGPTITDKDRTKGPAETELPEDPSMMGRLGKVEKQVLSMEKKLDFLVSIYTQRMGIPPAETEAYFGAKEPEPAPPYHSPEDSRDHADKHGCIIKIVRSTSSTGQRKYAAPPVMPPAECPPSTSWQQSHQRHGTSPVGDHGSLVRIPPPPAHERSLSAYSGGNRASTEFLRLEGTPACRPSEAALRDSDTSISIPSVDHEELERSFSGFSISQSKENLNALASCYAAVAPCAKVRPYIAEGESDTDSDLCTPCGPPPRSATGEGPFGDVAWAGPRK
# [6] = system: H9c2; test: cells; format: functional, cell-based; conditions: Rattus norvegicus, H9c2, Myocardium;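 note: confirmatory concentration-response retest of ultra-high-throughput screening hits for modulation of myocardial damage; cell death induced by hydrogen peroxide oxidative stress; compound pretreatment for 60 min then peroxide exposure for 2 h; potency is for protecting the cells against peroxide damage rather than for killing them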
# [7] = biological target: T2, Apoptotic protease-activating factor 1 (Homo sapiens, UniProt O14727); format: functional
# T2 sequence (O14727 whole entry): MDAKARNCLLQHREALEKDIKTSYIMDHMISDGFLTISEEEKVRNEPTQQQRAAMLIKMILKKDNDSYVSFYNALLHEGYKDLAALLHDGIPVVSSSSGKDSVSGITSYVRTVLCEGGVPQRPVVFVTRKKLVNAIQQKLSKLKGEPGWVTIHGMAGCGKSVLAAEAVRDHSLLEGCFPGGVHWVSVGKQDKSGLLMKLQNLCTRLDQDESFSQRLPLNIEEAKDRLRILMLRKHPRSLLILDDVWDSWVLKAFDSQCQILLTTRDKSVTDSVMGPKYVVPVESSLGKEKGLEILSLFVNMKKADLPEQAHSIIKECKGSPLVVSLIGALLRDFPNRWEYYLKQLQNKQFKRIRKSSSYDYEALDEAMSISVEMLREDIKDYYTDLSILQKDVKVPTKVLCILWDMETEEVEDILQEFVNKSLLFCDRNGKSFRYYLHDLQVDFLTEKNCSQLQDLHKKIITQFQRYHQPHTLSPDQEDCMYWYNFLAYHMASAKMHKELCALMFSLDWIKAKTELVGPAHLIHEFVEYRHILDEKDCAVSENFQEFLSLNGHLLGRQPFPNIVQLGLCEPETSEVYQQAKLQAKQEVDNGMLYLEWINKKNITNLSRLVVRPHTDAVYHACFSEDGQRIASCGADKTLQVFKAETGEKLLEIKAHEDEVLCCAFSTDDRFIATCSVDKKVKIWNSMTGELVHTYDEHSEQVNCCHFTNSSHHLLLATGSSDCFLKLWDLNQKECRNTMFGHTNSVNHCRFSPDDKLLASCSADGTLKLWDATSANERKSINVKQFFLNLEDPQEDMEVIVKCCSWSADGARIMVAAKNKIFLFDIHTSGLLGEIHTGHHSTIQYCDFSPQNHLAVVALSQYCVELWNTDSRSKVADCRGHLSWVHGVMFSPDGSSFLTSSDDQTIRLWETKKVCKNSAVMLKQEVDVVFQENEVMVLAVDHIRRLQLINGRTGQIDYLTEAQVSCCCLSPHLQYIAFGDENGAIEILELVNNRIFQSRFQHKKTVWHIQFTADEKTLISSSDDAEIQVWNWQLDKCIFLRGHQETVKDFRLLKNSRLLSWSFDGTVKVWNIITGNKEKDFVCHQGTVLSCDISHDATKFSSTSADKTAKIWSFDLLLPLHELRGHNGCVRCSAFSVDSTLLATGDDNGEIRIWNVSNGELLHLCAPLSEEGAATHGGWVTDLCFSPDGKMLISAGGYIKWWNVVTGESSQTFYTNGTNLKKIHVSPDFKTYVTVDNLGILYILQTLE
# [8] = biological target: T3, Caspase-3 (Homo sapiens, UniProt P42574); test: SAR Analysis of small molecule inhibitors of Sentrin-specific proteases (SENPs) using a Caspase-3 Selectivity assay. [Related pubchem assays (depositor defined):AID2540, AID2599, AID434973, AID489001]; format: functional
# T3 sequence (P42574 whole entry): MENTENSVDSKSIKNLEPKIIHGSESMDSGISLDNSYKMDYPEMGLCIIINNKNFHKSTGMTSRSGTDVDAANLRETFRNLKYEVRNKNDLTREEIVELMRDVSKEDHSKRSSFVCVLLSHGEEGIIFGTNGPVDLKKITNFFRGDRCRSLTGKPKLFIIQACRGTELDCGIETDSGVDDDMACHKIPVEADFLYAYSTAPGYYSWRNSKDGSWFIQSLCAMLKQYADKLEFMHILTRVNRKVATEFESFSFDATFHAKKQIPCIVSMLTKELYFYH
# [9] = biological target: T4, Sentrin-specific protease 8 (Homo sapiens, UniProt Q96LD8); test: SENP8 protease inhibitors, SAR follow-up, biochemical, luminescence (AID 504501); format: functional
# T4 sequence (Q96LD8 whole entry): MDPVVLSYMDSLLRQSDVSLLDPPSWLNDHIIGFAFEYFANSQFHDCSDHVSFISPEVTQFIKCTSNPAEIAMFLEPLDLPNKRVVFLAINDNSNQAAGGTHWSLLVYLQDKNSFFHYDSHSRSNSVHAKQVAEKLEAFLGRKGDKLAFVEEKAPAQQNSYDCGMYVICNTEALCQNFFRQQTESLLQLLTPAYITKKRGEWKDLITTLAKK
# [10] = biological target: T5, Sentrin-specific protease 7 (Homo sapiens, UniProt Q9BQF6); test: SENP7 protease inhibitors, SAR follow-up, biochemical, luminescence (AID 504497); format: functional
# T5 sequence (Q9BQF6 whole entry): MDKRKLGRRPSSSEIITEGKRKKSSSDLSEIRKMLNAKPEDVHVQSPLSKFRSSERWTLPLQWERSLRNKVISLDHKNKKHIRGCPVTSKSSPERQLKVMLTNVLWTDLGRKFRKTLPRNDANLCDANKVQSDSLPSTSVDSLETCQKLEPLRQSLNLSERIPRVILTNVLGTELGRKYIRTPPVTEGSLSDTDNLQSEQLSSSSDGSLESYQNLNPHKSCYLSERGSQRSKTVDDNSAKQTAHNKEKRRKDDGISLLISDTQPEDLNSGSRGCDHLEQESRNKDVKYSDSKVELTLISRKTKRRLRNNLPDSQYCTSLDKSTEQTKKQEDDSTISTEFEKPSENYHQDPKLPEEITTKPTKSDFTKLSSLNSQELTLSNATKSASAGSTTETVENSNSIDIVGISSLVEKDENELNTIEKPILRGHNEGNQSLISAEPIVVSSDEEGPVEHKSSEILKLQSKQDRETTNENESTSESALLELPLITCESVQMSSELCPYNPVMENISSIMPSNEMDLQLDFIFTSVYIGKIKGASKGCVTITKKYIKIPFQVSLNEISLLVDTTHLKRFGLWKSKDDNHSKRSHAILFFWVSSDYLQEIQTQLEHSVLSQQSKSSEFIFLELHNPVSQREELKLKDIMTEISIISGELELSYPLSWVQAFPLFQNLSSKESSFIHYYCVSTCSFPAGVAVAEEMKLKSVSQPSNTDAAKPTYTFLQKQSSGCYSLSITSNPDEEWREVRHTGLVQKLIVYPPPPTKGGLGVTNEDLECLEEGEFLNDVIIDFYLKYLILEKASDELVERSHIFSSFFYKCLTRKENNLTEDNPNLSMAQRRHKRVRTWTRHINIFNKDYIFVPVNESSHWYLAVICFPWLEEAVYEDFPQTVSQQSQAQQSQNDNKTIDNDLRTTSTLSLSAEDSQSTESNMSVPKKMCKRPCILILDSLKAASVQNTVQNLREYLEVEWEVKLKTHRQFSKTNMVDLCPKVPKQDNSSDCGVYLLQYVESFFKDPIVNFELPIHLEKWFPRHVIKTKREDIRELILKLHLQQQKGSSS
# [11] = biological target: T6, Sentrin-specific protease 6 (Homo sapiens, UniProt Q9GZR1); test: SAR Analysis of small molecule inhibitors of Sentrin-specific protease 6 (SENP6) using a Luminescent assay. [Related pubchem assays (depositor defined):AID2582, AID2599]; format: functional
# T6 sequence (Q9GZR1 whole entry): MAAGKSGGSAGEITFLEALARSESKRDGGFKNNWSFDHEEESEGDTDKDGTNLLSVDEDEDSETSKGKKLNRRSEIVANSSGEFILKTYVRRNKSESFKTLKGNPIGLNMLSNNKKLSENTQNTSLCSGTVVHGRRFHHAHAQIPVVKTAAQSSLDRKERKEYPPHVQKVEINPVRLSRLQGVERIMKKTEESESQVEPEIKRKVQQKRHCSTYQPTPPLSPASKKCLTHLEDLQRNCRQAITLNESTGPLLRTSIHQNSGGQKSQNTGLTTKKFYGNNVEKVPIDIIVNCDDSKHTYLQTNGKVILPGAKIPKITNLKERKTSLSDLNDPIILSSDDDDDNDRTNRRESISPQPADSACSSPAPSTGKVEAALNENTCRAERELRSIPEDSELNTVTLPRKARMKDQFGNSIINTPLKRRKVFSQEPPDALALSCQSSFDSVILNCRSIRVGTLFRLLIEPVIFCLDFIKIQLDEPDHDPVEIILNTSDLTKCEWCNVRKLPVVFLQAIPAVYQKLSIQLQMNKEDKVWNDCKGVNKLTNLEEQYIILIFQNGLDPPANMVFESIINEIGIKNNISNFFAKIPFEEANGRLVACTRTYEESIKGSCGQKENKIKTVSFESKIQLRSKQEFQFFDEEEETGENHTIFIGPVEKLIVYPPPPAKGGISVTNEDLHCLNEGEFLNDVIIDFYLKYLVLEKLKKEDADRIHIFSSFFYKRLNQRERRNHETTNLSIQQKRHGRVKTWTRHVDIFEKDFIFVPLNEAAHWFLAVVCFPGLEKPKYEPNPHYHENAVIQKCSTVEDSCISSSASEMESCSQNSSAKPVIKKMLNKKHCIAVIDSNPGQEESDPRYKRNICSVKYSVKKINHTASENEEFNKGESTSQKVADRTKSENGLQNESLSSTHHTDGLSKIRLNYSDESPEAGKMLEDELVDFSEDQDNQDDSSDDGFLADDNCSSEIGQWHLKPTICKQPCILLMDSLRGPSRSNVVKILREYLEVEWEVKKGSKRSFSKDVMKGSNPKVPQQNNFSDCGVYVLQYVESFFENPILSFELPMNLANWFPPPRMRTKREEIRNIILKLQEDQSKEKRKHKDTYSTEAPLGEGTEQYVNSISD
# [12] = cytotoxicity toward DRD oncogenic fibroblasts, dose response, cell-based, non-viral oncogenic, luminescence (AID 1934); format: functional; conditions: Homo sapiens
# [13] = system: BJ; test: cells; format: functional, cell-based; conditions: Homo sapiens
# [14] = system: BJ; test: cytotoxicity toward BJ-TERT-LT-ST fibroblasts, dose response, cell-based, RAS-independent, luminescence (AID 1935); format: functional; conditions: Homo sapiens;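 note: BJ fibroblasts immortalized with TERT plus LT and ST oncogenes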
# [15] = system: INS1; test: beta cell apoptosis inhibitors, cytokine rescue, dose response, luminescence, retest (AID 449756); format: functional, cell-based; conditions: Rattus norvegicus;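 note: cell death triggered by IL-1 beta plus TNF-alpha plus IFN-gamma mixture; protective hits raise ATP signal compared with cytokine alone wells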
# [16] = system: BJ; test: cytotoxicity toward Ras-transformed BJeLR fibroblasts, dose response, cell-based, alamar blue fluorescence, cherrypicked samples (AID 2631); format: functional; conditions: Homo sapiens;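 note: confirmatory dose-response assay in RAS-dependent BJ fibroblasts engineered with TERT, LT and ST, with cytotoxicity read by fluorescence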
# [17] = system: BJ; test: cytotoxicity toward BJ-TERT fibroblasts, dose response, cell-based, RAS-independent, luminescence (AID 1933); format: functional; conditions: Homo sapiens
# [18] = biological target: Mitochondrial peptide methionine sulfoxide reductase (Bos taurus, UniProt P54149); format: functional;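 note: absorbance read-out, biochemical high-throughput dose-response screen for MsrA inhibitors, confirmatory; recombinant bovine MsrA coupled to E. coli TrxB with NADPH and selenocystamine; potency is for inhibitors of MsrA activity on DMSO substrate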
# Chain of Mitochondrial peptide methionine sulfoxide reductase (P54149 whole entry): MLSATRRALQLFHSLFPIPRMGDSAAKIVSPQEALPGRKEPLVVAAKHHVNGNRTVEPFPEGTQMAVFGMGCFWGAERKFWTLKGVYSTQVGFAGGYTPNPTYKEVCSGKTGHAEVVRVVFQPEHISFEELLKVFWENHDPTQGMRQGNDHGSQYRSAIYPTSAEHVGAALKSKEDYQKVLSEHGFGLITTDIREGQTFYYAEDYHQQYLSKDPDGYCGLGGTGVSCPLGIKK
compound,measurement,setting,value
CS(=O)(=O)NN1C(=O)c2ccccc2NC1c1cccc2cccnc12 (stereo not drawn),EC50,[1],0.697 µM (active)
same,EC50,[2],> 160 µM (inactive)
same,EC50,[3],> 180 µM (inactive)
same,EC50,[4],> 160 µM (inactive)
COc1cc(-c2cc(C(=O)Nc3ccccc3N3CCOCC3)c3ccccc3n2)cc(OC)c1OC,IC50,[5],0.11 µM (active)
same,IC50,[6],> 79 µM (inactive)
Cc1cccc(C)c1NC(=O)Cn1cc(C=O)c2ccccc21,IC50,[7],> 100 µM (inactive)
COc1ccc(C2CCCN2C(=O)c2sc3ccccc3c2Cl)cc1OC (stereo not drawn),IC50,[8],> 99 µM (inactive)
same,IC50,[9],> 99 µM (inactive)
same,IC50,[10],> 99 µM (inactive)
same,IC50,[11],> 99 µM (inactive)
Cc1cccc(N/N=C/c2cn(Cc3ccccc3)c3ccccc23)c1,IC50,[8],> 99 µM (inactive)
same,IC50,[9],> 99 µM (inactive)
same,IC50,[10],> 99 µM (inactive)
same,IC50,[11],> 99 µM (inactive)
Cc1ccccc1NC(=O)c1ccccc1N(C)S(=O)(=O)c1ccccc1,IC50,[5],0.0922 µM (active)
CCOc1ccc(/N=C/c2c(C)[nH]n(-c3nc4ccccc4[nH]3)c2=O)cc1,EC50,[12],2.52 µM (active)
same,EC50,[13],2.41 µM (active)
same,EC50,[14],4.74 µM (inconclusive)
same,AC50,[15],1.98 µM (active)
same,EC50,[16],> 133 µM (inactive)
same,EC50,[17],1.22 µM (active)
Cc1cccc(/N=c2\oc3cc(O)ccc3cc2C(N)=O)c1,IC50,[18],155 µM (inactive)
